Measurements: US8889668B2, “Oxadiazole diaryl compounds” (Merck Serono SA, priority 2007, dated 2014)

What follows are compounds tested against S1P1 (Homo sapiens (Human), UniProt P21453) (assay: 35S-GTPγS binding, membranes from CHO cells expressing S1P1). Conditions: 60 min 30° C., read-out: S1P1 GTPgS EC50.
Format: biochemical

S1P1, sequence (P21453 whole entry, species assumed): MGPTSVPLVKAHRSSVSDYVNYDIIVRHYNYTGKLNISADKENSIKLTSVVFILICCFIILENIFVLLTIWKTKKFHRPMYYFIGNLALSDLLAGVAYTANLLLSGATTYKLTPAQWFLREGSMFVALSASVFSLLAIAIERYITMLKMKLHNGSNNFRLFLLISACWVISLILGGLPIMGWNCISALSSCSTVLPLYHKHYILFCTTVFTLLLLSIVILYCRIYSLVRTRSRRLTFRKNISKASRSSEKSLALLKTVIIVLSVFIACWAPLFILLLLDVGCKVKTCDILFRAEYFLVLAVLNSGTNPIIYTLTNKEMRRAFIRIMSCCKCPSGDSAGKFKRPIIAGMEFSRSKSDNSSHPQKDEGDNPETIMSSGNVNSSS

Row | EC50 | SMILES
1 | 0.028 µM | COc1ccc(F)cc1-c1noc(-c2ccc(N3CCOCC3)c(C)c2)n1 [Compound I66, 4-{4-[3-(5-fluoro-2-methoxyphenyl)-1,2,4-oxadiazol-5-yl]-2-methylphenyl}morpholine]
2 | 0.039 µM | CS(=O)(=O)Nc1cc(-c2nc(-c3ccccc3OC(F)(F)F)no2)ccc1N1CCCC(F)(F)C1 [Compound I43, N-(2-(3,3-difluoropiperidin-1-yl)-5-{3-[2-(trifluoromethoxy)phenyl]-1,2,4-oxadiazol-5-yl}phenyl)methanesulfonamide]
3 | 0.254 µM | CCOc1ccccc1-c1noc(-c2ccc(N3CCCCC3)c([N+](=O)[O-])c2)n1 [Compound I7, 1-{4-[3-(2-ethoxyphenyl)-1,2,4-oxadiazol-5-yl]-2-nitrophenyl}piperidine]
4 | 0.064 µM | CC(C)Cc1ccc(-c2nc(-c3ccccc3OC(F)(F)F)no2)cc1 [Compound I30, 5-(4-isobutylphenyl)-3-[2-(trifluoromethoxy)phenyl]-1,2,4-oxadiazole]
5 | 1.13 µM | O=[N+]([O-])c1cc(-c2nc(-c3ccccc3OC(F)(F)F)no2)ccc1N1CCCCCC1 [Compound I15, 1-(2-nitro-4-{3-[2-(trifluoromethoxy)phenyl]-1,2,4-oxadiazol-5-yl}phenyl)azepane]
6 | 0.033 µM | COc1ccccc1-c1noc(-c2ccc(-c3ccccc3C)c(OC)c2)n1 [Compound I46, 5-(2-methoxy-2′-methylbiphenyl-4-yl)-3-(2-methoxyphenyl)-1,2,4-oxadiazole]
7 | 0.712 µM | COc1ccccc1-c1noc(-c2ccc(N3CCOCC3)c(N)c2)n1 [Compound I6, 5-[3-(2-methoxyphenyl)-1,2,4-oxadiazol-5-yl]-2-morpholin-4-ylaniline]
8 | 0.589 µM | CN(c1ccc(-c2nc(-c3ccccc3OC(F)(F)F)no2)cc1[N+](=O)[O-])C1CCCCC1 [Compound I5, N-cyclohexyl-N-methyl-2-nitro-4-{3-[2-(trifluoromethoxy)phenyl]-1,2,4-oxadiazol-5-yl}aniline]
9 | 1.2 µM | COc1ccc(-c2ccc(-c3nc(-c4ccccc4OC)no3)cc2C)c(OC)c1 [Compound I47, 5-(2′,4′-dimethoxy-2-methylbiphenyl-4-yl)-3-(2-methoxyphenyl)-1,2,4-oxadiazole]
10 | 0.428 µM | O=[N+]([O-])c1cc(-c2nc(-c3ccccc3OC(F)(F)F)no2)ccc1N1CCCC1 [Compound I14, 5-(3-nitro-4-pyrrolidin-1-ylphenyl)-3-[2-(trifluoromethoxy)phenyl]-1,2,4-oxadiazole]
11 | 0.267 µM | COc1ccc(F)cc1-c1noc(-c2ccc(N3C(C)CCC3C)c([N+](=O)[O-])c2)n1 (stereo not shown) [Compound I39, 5-[4-(2,5-dimethylpyrrolidin-1-yl)-3-nitrophenyl]-3-(5-fluoro-2-methoxyphenyl)-1,2,4-oxadiazole]
12 | 0.172 µM | COc1ccccc1-c1noc(-c2ccc(-c3c(C)noc3C)c(C)c2)n1 [Compound I50, 5-[4-(3,5-dimethylisoxazol-4-yl)-3-methylphenyl]-3-(2-methoxyphenyl)-1,2,4-oxadiazole]
13 | 0.228 µM | COc1ccccc1-c1noc(-c2ccc(N3CCCCCC3)c([N+](=O)[O-])c2)n1 [Compound I16, 1-{4-[3-(2-methoxyphenyl)-1,2,4-oxadiazol-5-yl]-2-nitrophenyl}azepane]
14 | 0.057 µM | COc1ccccc1-c1noc(-c2ccc(-c3ccccc3C(F)(F)F)c(C)c2)n1 [Compound I24, 3-(2-methoxyphenyl)-5-[2-methyl-2′-(trifluoromethyl)biphenyl-4-yl]-1,2,4-oxadiazole]
15 | 1.25 µM | COc1ccccc1-c1noc(-c2ccc(N3C(C)CCC3C)c([N+](=O)[O-])c2)n1 (stereo not shown) [Compound I42, 5-[4-(2,5-dimethylpyrrolidin-1-yl)-3-nitrophenyl]-3-(2-methoxyphenyl)-1,2,4-oxadiazole]
16 | 0.08 µM | O=[N+]([O-])c1cc(-c2nc(-c3ccccc3OC(F)(F)F)no2)ccc1N1CCCC(F)(F)C1 [Compound I11, 3,3-difluoro-1-(2-nitro-4-{3-[2-(trifluoromethoxy)phenyl]-1,2,4-oxadiazol-5-yl}phenyl)piperidine]
